Data set [1] relates to K-ras^ts-NRK cells. The data set can be described thus: Action mechanism: morphology / M phase observation in K-ras^ts-NRK cells. The format is cell-based, rat. The following applies: 33° C., 0.1 μg/ml, after one day. How it is done: Before the addition of the III-121C, the cells grew atop the other and had projections or processes on their surface (FIG. 9(a)).
The procedure as described above was repeated by replacing the III-121C with 0.1 μg/ml of vinblastine, 0.1 μg/ml of vincristine and 0.1 μg/ml of colchicine, which are known as microtubule formation inhibitors.

For data set [2], the system named is Ras protein. The following applies: cited from earlier work.
A short description of data set [3]: Acute toxicity (LD50) on mouse upon intravenous injection. Type of data set: in vivo. The following applies: in vivo, intravenous injection. The protocol: Toxicity (LD50) on mouse of III-121C upon intravenous injection was measured.
The subject of data set [4] is K-ras-NRK cells. The data set can be described thus: Action mechanism: flow-cytometric DNA content analysis of K-ras-NRK cells. Type of data set: cell-based, rat. The following applies: 24 hours; III-121C 0.3 and 1 μg/ml, vinblastine 0.1 μg/ml (FIG. 11). How it is done:
FIGS. 11(a) to (d) are graphs showing the results of flow-cytometric analysis wherein the number of cells is depicted in relation to their DNA content, upon addition of no reagent (FIG. 11(a)), 0.3 μg/ml of III-121C (FIG. 11(b)), 1 μg/ml of III-121C (FIG. 11(c)), and 0.1 μg/ml of vinblastine (FIG. 11(d)) to the K-ras NRK cell culture.
To the cells of K-ras-NRK in their propagation was added either one of III-121C and vinblastine. No reagent was added to the control cells. After 24 hours from the addition, the cells were fractionated with a cell sorter to examine the DNA quantity in relation to the number of the cells.

Molecules are shown by their SMILES. Structures can show the parent of a compound that is named as a salt.

Consider `COc1cc2c(c(OC)c1OC)-c1ccc(OC)c(=O)cc1[C@@H](NC(C)=O)CC2` [colchicine, reference compound], for which, in data set [1], the “number of circular or elongated cells in M phase” value (“number” for short) was “a significant increase in the number of circular or elongated cells that are in their M phase of the cell cycle”.
As for `CC[C@H](C)C(=O)O[C@H]1CCC=C2C=C[C@H](C)[C@H](CC[C@@H]3C[C@@H](O)CC(=O)O3)[C@H]21` [compactin], the “inhibition of the action of the ras oncogene product (Ras protein)” value in data set [2] is “capable of inhibiting the action of the ras oncogene product”.
With `Nc1nc2c(ncn2[C@@H]2O[C@H](CO)[C@@H](O)[C@H]2O)c(=O)o1` [oxanosin], the “inhibition of the action of the ras oncogene product (Ras protein)” value in data set [2] is “capable of inhibiting the action of the ras oncogene product”.
A word on the LD50: it is the dose expected to kill half of the subjects tested. Take `CC[C@]1(O)C[C@@H]2CN(CCc3c([nH]c4ccccc34)[C@@](C(=O)OC)(c3cc4c(cc3OC)N(C)[C@H]3[C@@](O)(C(=O)OC)[C@H](OC(C)=O)[C@]5(CC)C=CCN6CC[C@]43[C@@H]65)C2)C1` [vinblastine sulfate, reference compound]: in data set [3], the LD50 came out at 15.2 mg/kg.
As to `CC[C@]1(O)C[C@@H]2CN(CCc3c([nH]c4ccccc34)[C@@](C(=O)OC)(c3cc4c(cc3OC)N(C)[C@H]3[C@@](O)(C(=O)OC)[C@H](OC(C)=O)[C@]5(CC)C=CCN6CC[C@]43[C@@H]65)C2)C1` [vinblastine, reference compound], in data set [1], the “number” value was “a significant increase in the number of circular or elongated cells that are in their M phase of the cell cycle”. In data set [4], the “cell cycle / cell division inhibition” value is recorded as “inhibition of G2 /M phase in the cell cycle” and the “distribution of DNA quantity in cells” value was “an increase in the number of cells having a relatively large quantity of DNA was observed”.
For the molecule `CC[C@]1(O)C[C@H]2CN(CCc3c([nH]c4ccccc34)[C@@](C(=O)OC)(c3cc4c(cc3OC)N(C=O)[C@H]3[C@@](O)(C(=O)OC)[C@H](OC(C)=O)[C@]5(CC)C=CCN6CC[C@]43[C@@H]65)C2)C1` [vincristine sulfate, reference compound], in data set [3], the LD50 is 2.5 mg/kg.
For the molecule `CC[C@]1(O)C[C@H]2CN(CCc3c([nH]c4ccccc34)[C@@](C(=O)OC)(c3cc4c(cc3OC)N(C=O)[C@H]3[C@@](O)(C(=O)OC)[C@H](OC(C)=O)[C@]5(CC)C=CCN6CC[C@]43[C@@H]65)C2)C1` [vincristine, reference compound], the “number” value in data set [1] is recorded as “a significant increase in the number of circular or elongated cells that are in their M phase of the cell cycle”.
`CC[C@]1(O)C[C@@H]2CN(CCc3c([nH]c4ccccc34)[C@@](C(=O)OC)(c3cc4c(cc3OC)N(C)[C@H]3[C@@](O)(C(N)=O)[C@H](O)[C@]5(CC)C=CCN6CC[C@]43[C@@H]65)C2)C1` [vindecine sulfate, reference compound]: in data set [3], the LD50 was 9.1 mg/kg.

Source of the values: patent US5559115A, “Oncogene function-inhibitory agent, method for inhibiting oncogene function, and treatment of cancer” (Terumo Kabushiki Kaisha, priority 1993, dated 1996).
